Results: US10105377B2, “Compounds and nail polish” (Anacor Pharmaceuticals, Inc., priority 2014, dated 2018)

Tests used:
[1] = Tavaborole penetration of fingernails with one, two, or four layers of nail polish (vertical diffusion cells); assay type: in vitro ADME, human; details: from Tavaborole Topical Solution, 5%; through up to four layers of nail polish
Excerpt: Female human ex vivo, cadaver fingernails from eight donors were cleaned of any underlying tissue, rinsed with water to remove any additional materials from the surface and then characterized for width, length, thickness, and weight. Four different treatment groups were used to evaluate different nail polish application practices. In the first treatment group, one nail from each of seven donors (randomized to treatment group) was painted according to the first nail polish application practice. In the second treatment group, a second nail from each of seven donors (randomized to treatment group) was painted according to the second nail polish application practice. In the third treatment group, a third nail from each of seven donors (randomized to treatment group) was painted according to the third nail polish application practice. In the fourth treatment group, a fourth nail from each of seven donors (randomized to treatment group) was painted according to the fourth nail polish application practice. […]
Vertical diffusion cells were filled with pre-warmed receiving medium of phosphate buffered saline (pH 7.4) and a small stir bar, and were allowed to equilibrate to 32±1.0° C. The cell volumes were determined prior to initiating the study. […] Prior to dosing, each cell was evaluated for leaks. […]

[2] = ex vivo human cadaver fingernails; relative to ciclopirox; cited from earlier work

For `OB1OCc2cc(F)ccc21` [tavaborole, 5-fluoro-1,3-dihydro-1-hydroxy-2,1-benzoxaborole], the “penetration through layers of nail polish (in words)” value [1] is given as “able to penetrate” and the “quantity through the nail compared with ciclopirox” value [2] is given as 250 fold.
